Data: patent publication US10364226B2, “Pyridazinone compounds and uses thereof” (priority 2013, dated 2019)

Experiments:
[1] = test system: Influenza strain A549 A/WSN/33 (H1N1); test: Influenza Antiviral Assay; type: cell-based, Influenza A virus; details: Influenza A virus, A549, 20 h, neuraminidase fluorescence readout, read-out: % Inhibition
EN PA = EN PA (Influenza A virus, UniProt P15659); test: EN PA FRET Inhibition Assay; type: biochemical; details: read-out: Potency

SMILES | EC50 [1] [µM] | IC50 (EN PA) [µM]
CNC(=O)c1nn(CC2(n3cc(C)c4cccnc43)CCCC2)cc(OC(=O)OCC(C)(C)C)c1=O [Compound 801] | < 20 | < 0.1
CNC(=O)c1nn(CC2(n3cc(C)c4cccnc43)CCCCC2)cc(OC(=O)OC(C)(C)C)c1=O [Compound 806] | < 20 | < 0.1
O=C(NCc1ccccc1)c1nn(CC2(c3cccnc3)CCCC2)cc(O)c1=O [Compound 807] | < 20 | < 0.1
CNC(=O)c1nn(CC2(n3ccc4cccc(C)c43)CCCC2)cc(O)c1=O [Compound 808] | < 20 | < 0.1
O=C(NCc1ccc(F)c(Cl)c1)c1nn(CC2(c3ccncc3)CCCC2)cc(O)c1=O [Compound 809] | < 20 | < 0.1
CNC(=O)c1nn(CC2(n3ccc4ccc(C)cc43)CCCC2)cc(O)c1=O [Compound 810] | < 20 | < 0.1
O=C(NCc1ccccc1)c1nn(CC2(c3ccc(F)c(F)c3)CCCC2)cc(O)c1=O [Compound 812] | < 20 | < 0.1
CNC(=O)c1nn(CC2(n3c4c(c5cccnc53)CCC4)CCCC2)cc(O)c1=O [Compound 813] | < 20 | < 0.1
CNC(=O)c1nn(CC2(n3cc(C)c4cccnc43)CCC2)cc(O)c1=O [Compound 814] | < 20 | < 0.1
CNC(=O)c1nn(CC2(n3ccc4cc(F)ccc43)CCCC2)cc(O)c1=O [Compound 816] | < 20 | < 0.1
CNC(=O)c1nn(CC2(n3ccc4cc(Cl)cnc43)CCCC2)cc(O)c1=O [Compound 818] | < 20 | < 0.1
CC(C)(C)NC(=O)c1nn(CC2(n3ccc4cc(F)ccc43)CCCC2)cc(O)c1=O [Compound 819] | < 20 | < 0.1
Cc1cn(C2(Cn3cc(O)c(=O)c(C(=O)NC(C)(C)CO)n3)CCCC2)c2ncccc12 [Compound 820] | < 20 | < 0.1
Cc1cn(C2(Cn3cc(O)c(=O)c(C(=O)NCC(C)C)n3)CCCC2)c2ncccc12 [Compound 821] | < 20 | < 0.1
Cc1cn(C2(Cn3cc(O)c(=O)c(C(=O)NCC4(CO)CCCC4)n3)CCCC2)c2ncccc12 [Compound 822] | < 20 | < 0.1
Cc1cn(C2(Cn3cc(O)c(=O)c(C(=O)NCC(C)(C)CO)n3)CCCC2)c2ncccc12 [Compound 823] | < 20 | < 0.1
CNC(=O)c1nn(CC2(n3nc(C)c4ccccc43)CCCC2)cc(O)c1=O [Compound 824] | < 20 | 0.1 to 1
O=C(NCc1ccccc1)c1nn(CC2(c3ccncc3)CCCC2)cc(O)c1=O [Compound 825] | < 20 | 0.1 to 1
O=C1NCCCCCc2ccc3ccn(c3c2)C2(CCCC2)Cn2cc(O)c(=O)c1n2 [Compound 826] | < 20 | < 0.1
CCC(=O)c1nn(CC2(n3cc(C)c4cccnc43)CCCC2)cc(O)c1=O [Compound 827] | < 20 | < 0.1
CCNC(=O)c1nn(CC2(c3ccc4ccccc4c3)CCCC2)cc(O)c1=O [Compound 828] | < 20 | < 0.1
CC(C)(C)NC(=O)c1nn(CC2(c3ccc4ccccc4c3)CCCC2)cc(O)c1=O [Compound 829] | < 20 | < 0.1
CNC(=O)c1nn(CC2(c3cn(C)c4ccccc34)CCCC2)cc(O)c1=O [Compound 830] | > 100 | 0.1 to 1

SMILES | EC50 [1] [µM] | IC50 (EN PA) [µM]
CNC(=O)c1nn(CC2(c3c[nH]c4ccccc34)CCCC2)cc(O)c1=O [Compound 831] | > 100 | 0.1 to 1
O=C(NCc1ccccc1)c1nn(CC2(c3cncnc3)CCCC2)cc(O)c1=O [Compound 832] | > 100 | < 0.1
Cc1cn(C2(Cn3cc(O)c(=O)c(C(=O)C(C)C)n3)CCCC2)c2ncccc12 [Compound 833] | < 20 | < 0.1
CNC(=O)c1nn(CCN(c2ccccc2)c2ccccc2)cc(O)c1=O [Compound 834] | > 100 | 0.1 to 1
CNC(=O)c1nn(CCn2c3ccccc3c3ccccc32)cc(O)c1=O [Compound 835] | > 100 | 0.1 to 1
O=C1NCC/C=C/Cc2ccc3c(C(=O)C(F)(F)F)cn(c3c2)C2(CCCC2)Cn2cc(O)c(=O)c1n2 [Compound 836] | > 100 | ≥ 1
CNC(=O)c1nn(CCC(c2ccccc2)c2ccccc2)cc(O)c1=O [Compound 837] | > 100 | 0.1 to 1
CNC(=O)c1nn(CCN2c3ccccc3C=Cc3ccccc32)cc(O)c1=O [Compound 838] | < 20 | < 0.1
CNC(=O)c1nn(CCC2c3ccccc3CCc3ccccc32)cc(O)c1=O [Compound 839] | > 100 | 0.1 to 1
CNC(=O)c1nn(CCN2c3ccccc3CCc3ccccc32)cc(O)c1=O [Compound 840] | > 100 | 0.1 to 1
O=C1NCC/C=C/Cc2ccc3ccn(c3c2)C2(CCCC2)Cn2cc(O)c(=O)c1n2 [Compound 841] | < 20 | 0.1 to 1
CNC(=O)c1nn(CCN2c3ccccc3COc3ccccc32)cc(O)c1=O [Compound 842] | > 100 | 0.1 to 1
CNC(=O)c1nn(CC2(c3ccc4ccccc4n3)CCCC2)cc(O)c1=O [Compound 843] | < 20 | < 0.1
CNC(=O)c1nn(CC2(c3ccc4cnccc4c3)CCCC2)cc(O)c1=O [Compound 844] | < 20 | < 0.1
CNC(=O)c1nn(CC2(c3ccc4ncccc4c3)CCCC2)cc(O)c1=O [Compound 845] | < 20 | < 0.1
CNC(=O)c1nn(CC2(c3cc(C)c4ncccc4c3)CCCC2)cc(O)c1=O [Compound 846] | < 20 | < 0.1
CNC(=O)c1nn(CC2(c3cc(F)c4ncccc4c3)CCCC2)cc(O)c1=O [Compound 847] | > 100 | < 0.1
CNC(=O)c1nn(CC2(c3ccc4ccncc4c3)CCCC2)cc(O)c1=O [Compound 848] | > 100 | < 0.1
CNC(=O)c1nn(CC2(c3ccc4cccnc4c3)CCCC2)cc(O)c1=O [Compound 849] | < 20 | < 0.1
CNC(=O)c1nn(CC2(n3ccc4ccccc43)CCCC2)cc(O)c1=O [Compound 850] | < 20 | < 0.1
CNC(=O)c1nn(CC2(n3cc(C)c4cc(Cl)cnc43)CCCC2)cc(O)c1=O [Compound 851] | < 20 | < 0.1
CNC(=O)c1nn(CC2(n3cc(C)c4cccnc43)CCCC2)cc(OCc2ccccc2)c1=O [Compound 852] | > 100 | ≥ 1
CNC(=O)c1nn(CC2(n3ccc4ccc(C)nc43)CCCC2)cc(O)c1=O [Compound 853] | < 20 | < 0.1

SMILES | EC50 [1] [µM] | IC50 (EN PA) [µM]
CONC(=O)c1nn(CC2(n3cc(C)c4cccnc43)CCCC2)cc(O)c1=O [Compound 854] | < 20 | < 0.1
CNC(=O)c1nn(CC2(n3cnc4cncnc43)CCCC2)cc(O)c1=O [Compound 855] | > 100 | 0.1 to 1
CNC(=O)c1nn(CC2(n3ccc4c(Cl)cccc43)CCCC2)cc(O)c1=O [Compound 856] | < 20 | < 0.1
CNC(=O)c1nn(CC2(n3ccc4c(C)cccc43)CCCC2)cc(O)c1=O [Compound 857] | < 20 | < 0.1
CNC(=O)c1nn(CC2(Cn3cc(C)c4cccnc43)CCCC2)cc(O)c1=O [Compound 858] | > 100 | 0.1 to 1
CNC(=O)c1nn(CC2(n3ccc4c(F)cccc43)CCCC2)cc(O)c1=O [Compound 859] | < 20 | < 0.1
CNC(=O)c1nn(CC2(n3ccc4ccc(Cl)cc43)CCCC2)cc(O)c1=O [Compound 860] | < 20 | < 0.1
CNC(=O)c1nn(CC2(n3ccc4ccc(F)cc43)CCCC2)cc(O)c1=O [Compound 861] | < 20 | < 0.1
CCn1cc(C2(Cn3cc(O)c(=O)c(C(=O)NC)n3)CCCC2)c2ccccc21 [Compound 862] | > 100 | 0.1 to 1
Cc1cn(C2(Cn3cc(O)c(=O)c(C(=O)NC(C)(C)CNC(=O)OC(C)(C)C)n3)CCCC2)c2ncccc12 [Compound 863] | < 20 | 0.1 to 1
CNC(=O)c1nn(CC2(n3ccc4c(C)ccnc43)CCCC2)cc(O)c1=O [Compound 864] | < 20 | < 0.1
Cc1cn(C2(Cn3cc(O)c(=O)c(C(=O)NCCN)n3)CCCC2)c2ncccc12 [Compound 865] | < 20 | < 0.1
CC(C)(CO)NC(=O)c1nn(CC2(n3cc(Cl)c4cccnc43)CCCC2)cc(O)c1=O [Compound 866] | < 20 | < 0.1
CC(C)(CO)NC(=O)c1nn(CC2(n3ccc4cccnc43)CCCC2)cc(O)c1=O [Compound 867] | < 20 | < 0.1
Cc1cn(C2(Cn3cc(O)c(=O)c(C(=O)NC(C)(C)CN)n3)CCCC2)c2ccccc12 [Compound 868] | < 20 | < 0.1
Cc1cn(C2(Cn3cc(O)c(=O)c(C(=O)NCC(C)(C)CNC(=O)OC(C)(C)C)n3)CCCC2)c2ncccc12 [Compound 869] | < 20 | 0.1 to 1
Cc1cn(C2(Cn3cc(O)c(=O)c(C(=O)NCC(C)(C)CN)n3)CCCC2)c2ncccc12 [Compound 870] | 20 to 100 | < 0.1
CNC(=O)c1nn(CC2(c3cccc4[nH]ncc34)CCCC2)cc(O)c1=O [Compound 871] | > 100 | < 0.1
CNC(=O)c1nn(CC2(n3ccc4cc(C)cnc43)CCCC2)cc(O)c1=O [Compound 872] | < 20 | < 0.1
O=C1NCCCCCOc2ccc(cc2)C2(CCCC2)Cn2cc(O)c(=O)c1n2 [Compound 873] | > 100 | 0.1 to 1
CCOC(=O)[C@H]1[C@@H]2CC(Cn3cc(O)c(=O)c(C(=O)NC)n3)(n3cc(C)c4cccnc43)C[C@@H]21 (some centres unmarked) [Compound 874] | > 100 | 0.1 to 1
